US8946189B2, “Transplants” (priority 2007, dated 2015)
pKi: −log10 of the molar value. Entries after “also recorded” stand apart in the source; their conditions may differ.

Key:
[1] = in vivo; cited from earlier work
[2] = oral and/or intravenous, 10, 25, 50 and 100 mg/kg body weight; cited from earlier work
[3] = target: human NK(1) receptor (Homo sapiens, UniProt P25103); details: cited from earlier work
[4] = tested on: NK(2) and NK(3) receptors; details: vs NK(1); cited from earlier work
[5] = tested on: isolated rat aortic rings; test: Organ bath tension of isolated rat aortic rings (intact and denuded) precontracted with norepinephrine; type: cell-based; details: for Tension of aortic rings: after 0.3 uM norepinephrine

Chain of human NK(1) receptor (P25103 whole entry): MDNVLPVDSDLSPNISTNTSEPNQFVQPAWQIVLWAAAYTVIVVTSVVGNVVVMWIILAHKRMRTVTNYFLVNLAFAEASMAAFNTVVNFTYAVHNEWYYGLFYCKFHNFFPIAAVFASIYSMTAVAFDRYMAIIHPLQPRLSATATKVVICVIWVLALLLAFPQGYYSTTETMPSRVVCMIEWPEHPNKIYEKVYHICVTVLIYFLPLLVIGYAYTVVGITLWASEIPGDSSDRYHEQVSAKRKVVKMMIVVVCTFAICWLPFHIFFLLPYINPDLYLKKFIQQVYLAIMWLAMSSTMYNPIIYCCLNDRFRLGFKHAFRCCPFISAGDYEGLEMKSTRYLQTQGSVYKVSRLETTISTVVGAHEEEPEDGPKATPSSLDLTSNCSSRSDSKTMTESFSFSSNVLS

CSCC[C@@H]1NC(=O)[C@H](CC(C)C)NC(=O)[C@H](CCCNC(=N)N)NC(=O)[C@H](CO)NC(=O)[C@@H]2CSSC[C@@H]3NC(=O)[C@H](CO)NC(=O)CNC(=O)[C@H]([C@@H](C)O)NC(=O)[C@H](CSSC[C@H](N)C(=O)N[C@@H](CCCCN)C(=O)NCC(=O)N[C@@H](CCCCN)C(=O)NCC(=O)N[C@@H](C)C(=O)N[C@@H](CCCCN)C(=O)N2)NC(=O)[C@H](CSSC[C@@H](C(N)=O)NC(=O)[C@H](CCCCN)NC(=O)CNC(=O)[C@H](CO)NC(=O)[C@H](CCCNC(=N)N)NC3=O)NC(=O)[C@H](CC(=O)O)NC(=O)[C@H](Cc2ccc(O)cc2)NC1=O [Omega conotoxin MVIIA]
Potency as an analgesic relative to morphine [1]: 100-1000 fold

NC(=O)c1ncn([C@@H]2O[C@H](CO)[C@@H](O)[C@H]2O)c1N [Acadesine, 5-amino-4-imidazole carboxamide ribonucleoside]
Safety in humans [2]: safe in humans

Cc1cccc(C)c1NC(=O)C[C@H]1CCN(C(=O)c2cc(C(F)(F)F)cc(C(F)(F)F)c2)[C@@H](Cc2ccccc2)C1.O=C(O)C[C@H](O)C(=O)O (relative stereo) [R116301, (2R-trans)-4-[1-[3,5-bis(trifluoromethyl)benzoyl]-2-(phenylmethyl)-4-piperidinyl]-N-(2,6-dimethylphenyl)-1-acetamide (S)-Hydroxybutanedioate]
pKi [3]: 9.35 | Selectivity toward NK(2) and NK(3) receptors [4]: over 200 fold

CCN(CC)CC(=O)Nc1c(C)cccc1C [Lidocaine]
Concentration at which tension begins to decrease by over 5% relative to the precontracted state ([5]; denuded rings): 200 µM | Relaxation (percent tension decrease) relative to the precontracted state ([5]; denuded rings, 200 uM): 7% | Extent of relaxation, percentage of precontracted norepinephrine tension ([5]; denuded rings, drug 10 μM): 100.0 ± 0.4% | Tension of aortic rings ([5]; denuded rings, drug 10 μM): 3.32 ± 0.12 g | Extent of relaxation, percentage of precontracted norepinephrine tension ([5]; denuded rings, drug 60 μM): 99.4 ± 0.4% | Tension of aortic rings ([5]; denuded rings, drug 60 μM): 3.31 ± 0.12 g | Extent of relaxation, percentage of precontracted norepinephrine tension ([5]; denuded rings, drug 160 μM): 96.8 ± 0.7% | Tension of aortic rings ([5]; denuded rings, drug 160 μM): 3.24 ± 0.12 g | Extent of relaxation, percentage of precontracted norepinephrine tension ([5]; denuded rings, drug 360 μM): 93.4 ± 0.6% | Tension of aortic rings ([5]; denuded rings, drug 360 μM): 3.11 ± 0.12 g | Tension of aortic rings ([5]; denuded rings, drug 660 μM): 2.92 ± 0.12 g | Extent of relaxation, percentage of precontracted norepinephrine tension ([5]; denuded rings, drug 1060 μM): 82.4 ± 1.0% | Tension of aortic rings ([5]; denuded rings, drug 1060 μM): 2.75 ± 0.12 g | Extent of relaxation, percentage of precontracted norepinephrine tension ([5]; denuded rings, drug 1560 μM): 75.8 ± 2.0% | Tension of aortic rings ([5]; denuded rings, drug 1560 μM): 2.53 ± 0.13 g | Concentration at which tension begins to decrease by over 5% relative to the precontracted state ([5]; intact rings): 200 µM | Relaxation (percent tension decrease) relative to the precontracted state ([5]; intact rings, 10 uM): no change | Tension expressed as a percent of baseline ([5]; intact rings, 10 uM): 100% | Relaxation (percent tension decrease) relative to the precontracted state ([5]; intact rings, 50 uM): no change | Tension expressed as a percent of baseline ([5]; intact rings, 50 uM): 96% | Relaxation (percent tension decrease) relative to the precontracted state ([5]; intact rings, 100 uM): 5% | Tension expressed as a percent of baseline ([5]; intact rings, 100 uM): 96% | Tension expressed as a percent of baseline ([5]; intact rings, 200 uM): 91% | Relaxation relative to the relaxation of intact adenosine alone ([5]; intact rings, 300 uM): 14% | Tension expressed as a percent of baseline ([5]; intact rings, 300 uM): 84% | Relaxation (percent tension decrease) relative to the precontracted state ([5]; intact rings, 400 uM): 24% | Relaxation relative to the relaxation of intact adenosine alone ([5]; intact rings, 400 uM): 30% | Tension expressed as a percent of baseline ([5]; intact rings, 400 uM): 76% | Relaxation relative to the relaxation of intact adenosine alone ([5]; intact rings, 500 uM): 30% | Tension expressed as a percent of baseline ([5]; intact rings, 500 uM): 72% | Extent of relaxation, percentage of precontracted norepinephrine tension ([5]; intact rings, drug 10 μM): 99.7 ± 0.2% | Tension of aortic rings ([5]; intact rings, drug 10 μM): 3.57 ± 0.08 g | Extent of relaxation, percentage of precontracted norepinephrine tension ([5]; intact rings, drug 60 μM): 97.8 ± 0.7% | Tension of aortic rings ([5]; intact rings, drug 60 μM): 3.50 ± 0.08 g | Extent of relaxation, percentage of precontracted norepinephrine tension ([5]; intact rings, drug 160 μM): 96.2 ± 0.6% | Tension of aortic rings ([5]; intact rings, drug 160 μM): 3.44 ± 0.07 g | Extent of relaxation, percentage of precontracted norepinephrine tension ([5]; intact rings, drug 360 μM): 91.7 ± 0.5% | Tension of aortic rings ([5]; intact rings, drug 360 μM): 3.28 ± 0.07 g | Extent of relaxation, percentage of precontracted norepinephrine tension ([5]; intact rings, drug 660 μM): 84.4 ± 1.2% | Tension of aortic rings ([5]; intact rings, drug 660 μM): 3.02 ± 0.07 g | Extent of relaxation, percentage of precontracted norepinephrine tension ([5]; intact rings, drug 1060 μM): 76.2 ± 3.5% | Tension of aortic rings ([5]; intact rings, drug 1060 μM): 2.73 ± 0.13 g | Extent of relaxation, percentage of precontracted norepinephrine tension ([5]; intact rings, drug 1560 μM): 72.2 ± 3.5% | Tension of aortic rings ([5]; intact rings, drug 1560 μM): 2.59 ± 0.14 g | Dependence of relaxation on an intact endothelium (denuded vs intact rings) ([5]; intact vs denuded rings): endothelium independent; also recorded: does not appear to be endothelium dependent
